From patent publication US9475816B2, “Substituted-1,4-dihydropyrazolo[4,3-b]indoles” (TAKEDA PHARMACEUTICAL COMPANY LIMITED, priority 2012, dated 2016)

Columns and labels:
human MetAP2 enzyme [1] = molecular target: T1, human MetAP2 enzyme (Homo sapiens, UniProt P50579); test: MetAP2 enzyme assay, MetAP2 enzyme complexed with cobalt ions; settings: MetAP2 Co pIC50, 10 μM CoCl2; -log(IC50), IC50 molar
Procedure: DNA encoding the full-length sequence of human MetAP2 enzyme is amplified by PCR and cloned into a pFastBac expression vector (Invitrogen). Recombinant baculovirus incorporating the MetAP2 construct is generated by transposition using the Bac-to-Bac system (Invitrogen). The expression of recombinant protein is carried out by infection of Spodoptera frugiperda Sf9 cells (Invitrogen) in 5L Wave Bioreactors (Wave Biotech). Recombinant protein is isolated from cellular extracts by binding to an SP Hitrap Fast Flow or SP Sepharose (Sigma) column, and the protein is eluted using a NaCl gradient. Partially purified extracts of MetAP2 are further purified by an AKTA FPLC over a Superdex-200 column (GE). The purity of MetAP2 protein is determined on denaturing SDS-PAGE gel.
The results for each well are expressed as percent inhibition and calculated using the equation:

human MetAP2 enzyme [2] = molecular target: T1, human MetAP2 enzyme; test: MetAP2 enzyme assay, MetAP2 enzyme complexed with manganese ions; settings: MetAP2 Mn pIC50, 10 μM MnCl2; -log(IC50), IC50 molar

T1 sequence (P50579 whole entry): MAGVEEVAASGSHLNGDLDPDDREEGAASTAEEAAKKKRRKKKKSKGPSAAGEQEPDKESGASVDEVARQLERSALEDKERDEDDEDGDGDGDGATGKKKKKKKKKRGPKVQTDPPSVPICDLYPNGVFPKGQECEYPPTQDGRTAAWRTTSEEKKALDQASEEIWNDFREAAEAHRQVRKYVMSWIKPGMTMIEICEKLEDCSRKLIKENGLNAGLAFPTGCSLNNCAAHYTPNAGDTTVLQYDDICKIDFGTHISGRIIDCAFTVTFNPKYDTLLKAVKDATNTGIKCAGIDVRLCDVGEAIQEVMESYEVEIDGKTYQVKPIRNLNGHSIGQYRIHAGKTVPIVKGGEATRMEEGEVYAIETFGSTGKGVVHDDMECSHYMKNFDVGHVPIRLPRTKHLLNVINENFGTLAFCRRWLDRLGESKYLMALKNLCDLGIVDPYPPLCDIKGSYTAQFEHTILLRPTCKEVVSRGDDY

Fc1ccc2c(c1)c1[nH]ncc1n2Cc1ccccc1 [Example 1, 4-Benzyl-7-fluoro-1,4-dihydropyrazolo[4,3-b]indole]
IC50 (human MetAP2 enzyme [1]): 39.8 nM
IC50 (human MetAP2 enzyme [2]): 31.6 nM

Fc1cc2c3[nH]ncc3n(Cc3ccccc3)c2cc1F [Example 2, 4-Benzyl-6,7-difluoro-1,4-dihydropyrazolo[4,3-b]indole]
IC50 (human MetAP2 enzyme [1]): 100 nM
IC50 (human MetAP2 enzyme [2]): 50.1 nM

Cc1nc(N2CC[C@@H](O)C2)ccc1-n1c2ccc(F)cc2c2[nH]ncc21 [Example 6, (3R)-1-(5-(7-Fluoropyrazolo[4,3-b]indol-4(1H)-yl)-6-methylpyridin-2-yl)pyrrolidin-3-ol]
IC50 (human MetAP2 enzyme [1]): 6.31 nM
IC50 (human MetAP2 enzyme [2]): 6.31 nM

Cc1nc(N2CCN(C)CC2)ccc1-n1c2ccc(F)cc2c2[nH]ncc21 [Example 7, 7-Fluoro-4-(2-methyl-6-(4-methylpiperazin-1-yl)pyridin-3-yl)-1,4-dihydropyrazolo[4,3-b]indole]
IC50 (human MetAP2 enzyme [1]): 15.8 nM
IC50 (human MetAP2 enzyme [2]): 12.6 nM

CN1CCN(c2cc(-n3c4ccc(F)cc4c4[nH]ncc43)ccn2)CC1 [Example 8, 7-Fluoro-4-(2-(4-methylpiperazin-1-yl)pyridin-4-yl)-1,4-dihydropyrazolo[4,3-b]indole]
IC50 (human MetAP2 enzyme [1]): 25.1 nM
IC50 (human MetAP2 enzyme [2]): 5.01 nM

Cc1c(-n2c3ccc(F)cc3c3[nH]ncc32)ccc2nn(C)cc12 [Example 9, 4-(2,4-Dimethyl-2H-indazol-5-yl)-7-fluoro-1,4-dihydropyrazolo[4,3-b]indole]
IC50 (human MetAP2 enzyme [1]): 10 nM
IC50 (human MetAP2 enzyme [2]): 6.31 nM

Cc1ccc(-n2c3ccc(F)cc3c3[nH]ncc32)c(C)n1 [Example 10, 4-(2,6-Dimethylpyridin-3-yl)-7-fluoro-1,4-dihydropyrazolo[4,3-b]indole]
IC50 (human MetAP2 enzyme [1]): 12.6 nM
IC50 (human MetAP2 enzyme [2]): 7.94 nM

Cc1cccc(-n2c3ccc(F)cc3c3[nH]ncc32)n1 [Example 11, 7-Fluoro-4-(6-methylpyridin-2-yl)-1,4-dihydropyrazolo[4,3-b]indole]
IC50 (human MetAP2 enzyme [1]): 100 nM
IC50 (human MetAP2 enzyme [2]): 6.31 nM

Cc1nc(NC[C@@H](C)O)ccc1-n1c2ccc(F)cc2c2[nH]ncc21 [Example 12, (2R)-1-((5-(7-Fluoropyrazolo[4,3-b]indol-4(1H)-yl)-6-methylpyridin-2-yl)amino)propan-2-ol]
IC50 (human MetAP2 enzyme [1]): 12.6 nM
IC50 (human MetAP2 enzyme [2]): 5.01 nM

Cc1cc2cnn(C)c2cc1-n1c2ccc(F)cc2c2[nH]ncc21 [Example 14, 4-(1,5-Dimethyl-1H-indazol-6-yl)-7-fluoro-1,4-dihydropyrazolo[4,3-b]indole]
IC50 (human MetAP2 enzyme [1]): 7.94 nM
IC50 (human MetAP2 enzyme [2]): 7.94 nM

Cc1cc2nn(C)cc2cc1-n1c2ccc(F)cc2c2[nH]ncc21 [Example 15, 4-(2,6-Dimethyl-2H-indazol-5-yl)-7-fluoro-1,4-dihydropyrazolo[4,3-b]indole]
IC50 (human MetAP2 enzyme [1]): 10 nM
IC50 (human MetAP2 enzyme [2]): 10 nM

Cc1cc2cn(C)nc2cc1-n1c2ccc(F)cc2c2[nH]ncc21 [Example 16, 4-(2,5-Dimethyl-2H-indazol-6-yl)-7-fluoro-1,4-dihydropyrazolo[4,3-b]indole]
IC50 (human MetAP2 enzyme [1]): 7.94 nM
IC50 (human MetAP2 enzyme [2]): 6.31 nM

Cc1c(-n2c3ccc(F)cc3c3[nH]ncc32)ccc2c1cnn2C [Example 17, 4-(1,4-Dimethyl-1H-indazol-5-yl)-7-fluoro-1,4-dihydropyrazolo[4,3-b]indole]
IC50 (human MetAP2 enzyme [1]): 7.94 nM
IC50 (human MetAP2 enzyme [2]): 6.31 nM

Nc1ncc(C(=O)O)cc1-n1c2ccc(F)cc2c2[nH]ncc21 [Example 18, 6-Amino-5-(7-fluoropyrazolo[4,3-b]indol-4(1H)-yl)nicotinic acid]
IC50 (human MetAP2 enzyme [1]): 100 nM
IC50 (human MetAP2 enzyme [2]): 63.1 nM

Cc1cc2[nH]ncc2cc1-n1c2ccc(F)cc2c2[nH]ncc21 [Example 19, 7-Fluoro-4-(6-methyl-1H-indazol-5-yl)-1,4-dihydropyrazolo[4,3-b]indole]
IC50 (human MetAP2 enzyme [1]): 12.6 nM
IC50 (human MetAP2 enzyme [2]): 12.6 nM

Cc1nc(N2CC[C@@H](C(N)=O)C2)ncc1-n1c2ccc(F)cc2c2[nH]ncc21 [Example 20, (3R)-1-(5-(7-Fluoropyrazolo[4,3-b]indol-4(1H)-yl)-4-methylpyrimidin-2-yl)pyrrolidine-3-carboxamide]
IC50 (human MetAP2 enzyme [1]): 12.6 nM
IC50 (human MetAP2 enzyme [2]): 6.31 nM
